Legend:
Format in all cases: binding
panel of 442 kinases [1] = molecular target: T1, panel of 442 kinases (Homo sapiens, UniProt Q9H093); conditions: kinase SNARK; compound concentration 10 µM
T1 construct: purchased KINOMEscan
T1 sequence (Q9H093 1-628): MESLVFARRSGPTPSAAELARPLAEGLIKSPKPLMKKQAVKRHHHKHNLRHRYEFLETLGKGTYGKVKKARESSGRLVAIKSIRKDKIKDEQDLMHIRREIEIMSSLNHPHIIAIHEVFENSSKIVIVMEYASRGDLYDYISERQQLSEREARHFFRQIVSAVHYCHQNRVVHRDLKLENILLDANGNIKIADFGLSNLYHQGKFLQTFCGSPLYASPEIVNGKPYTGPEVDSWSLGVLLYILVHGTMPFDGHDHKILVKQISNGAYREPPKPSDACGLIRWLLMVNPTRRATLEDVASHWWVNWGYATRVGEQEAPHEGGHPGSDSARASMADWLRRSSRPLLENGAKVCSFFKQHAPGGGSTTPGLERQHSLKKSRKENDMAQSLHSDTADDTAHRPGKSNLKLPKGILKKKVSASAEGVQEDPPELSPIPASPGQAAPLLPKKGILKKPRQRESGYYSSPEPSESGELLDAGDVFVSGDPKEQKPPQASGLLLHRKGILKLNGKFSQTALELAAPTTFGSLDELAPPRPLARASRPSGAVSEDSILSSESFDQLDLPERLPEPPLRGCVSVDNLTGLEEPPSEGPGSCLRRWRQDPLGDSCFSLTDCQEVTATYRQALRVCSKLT
Source text: (§1) We assessed the selectivity of members of this scaffold using the KINOMEscan methodology across a near comprehensive panel of 442 kinases [[18,27]].

panel of 442 kinases [2] = molecular target: T2, panel of 442 kinases (Homo sapiens, UniProt Q9HBH9); conditions: Compound Concentration 10 µM
T2 construct: purchased KINOMEscan
T2 sequence (Q9HBH9 whole entry): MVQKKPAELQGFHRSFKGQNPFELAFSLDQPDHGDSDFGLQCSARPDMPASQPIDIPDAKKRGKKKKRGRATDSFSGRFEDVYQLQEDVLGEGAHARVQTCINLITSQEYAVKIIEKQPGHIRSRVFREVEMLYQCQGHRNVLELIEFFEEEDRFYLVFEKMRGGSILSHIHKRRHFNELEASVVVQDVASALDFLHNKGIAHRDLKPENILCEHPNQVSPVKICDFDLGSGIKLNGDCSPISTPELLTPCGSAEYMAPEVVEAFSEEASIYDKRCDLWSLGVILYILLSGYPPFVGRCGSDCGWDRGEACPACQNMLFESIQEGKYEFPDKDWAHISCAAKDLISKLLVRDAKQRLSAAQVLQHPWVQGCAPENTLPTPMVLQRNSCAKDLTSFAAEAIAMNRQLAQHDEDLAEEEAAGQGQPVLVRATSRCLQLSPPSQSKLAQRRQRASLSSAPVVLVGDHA
Source text: as §1

panel of 442 kinases [3] = molecular target: T3, panel of 442 kinases (Homo sapiens, UniProt Q13131); conditions: Compound Concentration 10 µM
T3 construct: purchased KINOMEscan
T3 sequence (Q13131 whole entry): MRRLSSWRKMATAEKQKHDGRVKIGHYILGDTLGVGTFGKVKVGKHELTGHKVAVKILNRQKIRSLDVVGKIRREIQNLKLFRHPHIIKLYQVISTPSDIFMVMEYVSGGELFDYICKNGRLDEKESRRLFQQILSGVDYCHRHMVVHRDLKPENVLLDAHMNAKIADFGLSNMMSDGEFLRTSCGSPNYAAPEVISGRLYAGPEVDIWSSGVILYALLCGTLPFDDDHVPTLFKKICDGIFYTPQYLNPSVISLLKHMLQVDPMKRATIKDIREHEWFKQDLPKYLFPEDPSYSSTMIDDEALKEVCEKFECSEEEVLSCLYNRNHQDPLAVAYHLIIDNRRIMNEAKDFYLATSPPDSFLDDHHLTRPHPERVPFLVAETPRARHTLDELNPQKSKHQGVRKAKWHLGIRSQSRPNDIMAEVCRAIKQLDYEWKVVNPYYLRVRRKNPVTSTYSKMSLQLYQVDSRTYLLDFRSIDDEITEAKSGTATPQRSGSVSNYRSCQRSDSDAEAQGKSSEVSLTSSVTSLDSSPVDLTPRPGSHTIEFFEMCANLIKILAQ
Source text: as §1

SMILES	% Ctrl, SNARK (panel of 442 kinases [1])	KINOMEscan: MKNK2 (panel of 442 kinases [2])	KINOMEscan: AMPK-alpha1 (panel of 442 kinases [3])
CCOc1cc(C(=O)N2CCC(N3CCN(C)CC3)CC2)ccc1Nc1ncc2c(n1)N(C1CCCC1)c1ccccc1C(=O)N2C [Compound 26]	96 % Ctrl	100	100
COc1cc(C(=O)N2CCC(N3CCN(C)CC3)CC2)ccc1Nc1ncc2c(n1)N1CCc3cccc(c31)C(=O)N2C [Compound 24]	74 % Ctrl	8.6	–
COc1cc(C(=O)N2CCC(N3CCN(C)CC3)CC2)ccc1Nc1ncc2c(n1)N(C)c1ccccc1C(=O)N2C [15 (LRRK2-IN-1)]	47 % Ctrl	1.2	51
COc1cc(C(=O)N2CCC(N3CCN(C)CC3)CC2)ccc1Nc1ncc2c(n1)N(C1CCCC1)c1ccccc1C(=O)N2C [Compound 25, 11-cyclopentyl-2-((2-methoxy-4-(4-(4-methylpiperazin-1-yl)piperidine-1-carbonyl)phenyl)amino)-5-methyl-5H-benzo[e]pyrimido[5,4-b][1,4]diazepin-6(11H)-one]	100 % Ctrl	100	48

Reference: paper PMC3914206
